# Article PMC10547880, “Synthesis and biological evaluation of novel 1,2,3-triazole hybrids of cabotegravir: identification of potent antitumor activity against lung cancer” (Frontiers in Pharmacology, 2023)
# Key:
# Type in all cases: cell-based, Human
# H1299 cells = assay: CCK8 cell viability, H1299; conditions: H1299, 25 μM
# Protocol: (§1) Human lung cancer cell line H460 and H1299, human liver normal cell line LO2 were bought from ATCC. DMEM or RPMI 1640 was used as the cell culture medium with 10% FBS and 1% penicillin/streptomycin. Cells were maintained in an incubator with 37°C humidified atmosphere and 5% CO2.
# (§2) Cell viability and IC50 values were determined using the CCK8 assay kit. Cells were seeded at a density of 5 × 10^3 cells per well in a 96-well plate. After overnight adhesion, 25 μM of compounds or vehicle control DMSO which all dissolved in the culture medium were added to cells and cultured for 48 h or 72 h. CCK8 reagent, dissolved in the medium, was then added to cells and incubated for 1 h. The absorbance at 450 nm was measured using a microplate spectrophotometer (Thermo). Cell viability was calculated, with the untreated group taken as 100%. For IC50 values determination, different concentrations (0, 0.4 μM, 2 μM, 10 μM, 20 μM, 50 μM) of compounds were added to cells for 72 h. Subsequent CCK8 measurement allowed the calculation of inhibition percentage based on cell viability. The IC50 values were computed by the prism statistical software. The CCK-8 assay was conducted three times and the repetitions in each time were at least three. All the values were expressed as Mean ± SD, p < 0.05 was considered statistically significant.
# (§3) In order to assess the potential cytotoxicity of the synthesized compounds, we selected two types of human non-small-cell lung cancer cell line, H460 and H1299. Cell viability and cytotoxicity were evaluated using the CCK8 assay ([Xu et al., 2018]). The cells were treated with 25 μM of compounds 5a-5s and 6a-6i for 48h and 72 h. […] In contrast, no compounds managed to reduce H1299 cell viability to less than 50%, yet compounds 5i, 5m, 6h and 6i achieved cell viability rates below 70%. […] It is worth noting that minimal effects on the cell viability of the normal cell line LO2 were observed when exposed to these compounds. Further, we determined the half-maximal inhibitory concentration (IC50) of selected compounds against H460 cells, the results of which were summarized in Table 3.
# LO2 cells = assay: CCK8 cell viability, normal cell line LO2; conditions: LO2 normal liver cells, 25 μM, 72 h
# Protocol: as §1, §2, §3
# H460 cells = assay: CCK8 cell viability and IC50 measurement, H460; conditions: for cell proliferation inhibition rate: H460, 72-h treatment; for IC50: H460, 72 h, CCK8; for Cell viability: H460, 25 μM
# Protocol: as §1, §2, §3
Structure (SMILES),Cell viability (H1299 cells; 48 h) [%],Cell viability (H1299 cells; 72 h) [%],Cell viability (LO2 cells) [%],cell proliferation inhibition rate (H460 cells),IC50 (H460 cells) [µM],Cell viability (H460 cells; 48 h) [%],Cell viability (H460 cells; 72 h) [%]
COc1c2n(cc(C(=O)Nc3cccc(-c4cn(-c5ccccc5C)nn4)c3)c1=O)CC1OCC(C)N1C2=O (stereo not drawn) [Compound 5c],94.81,83.51,73.79,exceed 50%,9.65 ± 0.04,–,–
COc1c2n(cc(C(=O)Nc3cccc(-c4cn(-c5ccccc5C(F)(F)F)nn4)c3)c1=O)CC1OCC(C)N1C2=O (stereo not drawn) [Compound 5a],121.35,102.55,105.28,–,31.8 ± 0.47,87.78,65.75
COc1c2n(cc(C(=O)Nc3cccc(-c4cn(Cc5ccccc5C(F)(F)F)nn4)c3)c1=O)CC1OCC(C)N1C2=O (stereo not drawn) [Compound 6e],127.00,92.15,127.55,–,22.88 ± 0.13,77.85,60.74
COc1c2n(cc(C(=O)Nc3cccc(-c4cn(-c5cccc(Br)c5)nn4)c3)c1=O)CC1OCC(C)N1C2=O (stereo not drawn) [Compound 5r],117.54,89.82,127.81,–,–,99.03,107.13
COc1c2n(cc(C(=O)Nc3cccc(-c4cn(-c5ccccc5Br)nn4)c3)c1=O)CC1OCC(C)N1C2=O (stereo not drawn) [Compound 5m],112.42,–,111.3,–,> 50,96.50,94.59
COc1c2n(cc(C(=O)Nc3cccc(-c4cn(-c5cc(C(F)(F)F)cc(C(F)(F)F)c5)nn4)c3)c1=O)CC1OCC(C)N1C2=O (stereo not drawn) [Compound 5e],103.75,99.34,129.12,–,> 100,101.34,101.97
COc1c2n(cc(C(=O)Nc3cccc(-c4cn(Cc5ccccc5C)nn4)c3)c1=O)CC1OCC(C)N1C2=O (stereo not drawn) [Compound 6c],110.58,97.63,103.41,–,–,105.51,101.80
CCc1ccccc1-n1cc(-c2cccc(NC(=O)c3cn4c(c(OC)c3=O)C(=O)N3C(C)COC3C4)c2)nn1 (stereo not drawn) [Compound 5d],117.48,99.81,127.81,exceed 50%,12.7 ± 4.85,92.17,–
COc1c2n(cc(C(=O)Nc3cccc(-c4cn(Cc5cccc(F)c5)nn4)c3)c1=O)CC1OCC(C)N1C2=O (stereo not drawn) [Compound 6i],99.47,–,127.14,–,–,97.90,95.51
COc1c2n(cc(C(=O)Nc3cccc(-c4cn(-c5ccc(C(F)(F)F)cc5)nn4)c3)c1=O)CC1OCC(C)N1C2=O (stereo not drawn) [Compound 5j],96.98,92.49,108.63,–,–,100.66,111.72
COc1c2n(cc(C(=O)Nc3cccc(-c4cn(-c5cccc(F)c5)nn4)c3)c1=O)CC1OCC(C)N1C2=O (stereo not drawn) [Compound 5f],114.19,100.41,130.35,–,–,93.31,100.16
COc1c2n(cc(C(=O)Nc3cccc(-c4cn(Cc5ccccc5)nn4)c3)c1=O)CC1OCC(C)N1C2=O (stereo not drawn) [Compound 6a],118.73,101.39,127.44,–,> 50,99.81,118.33
COc1c2n(cc(C(=O)Nc3cccc(-c4cn(-c5ccccc5I)nn4)c3)c1=O)CC1OCC(C)N1C2=O (stereo not drawn) [Compound 5o],120.83,86.67,100.11,–,–,101.09,104.29
COc1c2n(cc(C(=O)Nc3cccc(-c4cn(-c5cccc(C(F)(F)F)c5)nn4)c3)c1=O)CC1OCC(C)N1C2=O (stereo not drawn) [Compound 5h],114.98,93.73,101.34,–,> 100,97.75,75.09
COc1ccccc1-n1cc(-c2cccc(NC(=O)c3cn4c(c(OC)c3=O)C(=O)N3C(C)COC3C4)c2)nn1 (stereo not drawn) [Compound 5g],117.81,103.45,128.56,–,–,82.94,99.43
COc1c2n(cc(C(=O)Nc3cccc(-c4cn(Cc5ccccc5Cl)nn4)c3)c1=O)CC1OCC(C)N1C2=O (stereo not drawn) [Compound 6h],126.87,–,88.86,exceed 50%,15.86 ± 0.09,–,–
COc1c2n(cc(C(=O)Nc3cccc(-c4cn(-c5cc(C(F)(F)F)ccc5C(F)(F)F)nn4)c3)c1=O)CC1OCC(C)N1C2=O (stereo not drawn) [Compound 5k],113.47,91.70,124.51,–,36 ± 2.73,94.55,52.15
COc1c2n(cc(C(=O)Nc3cccc(-c4cn(-c5ccccc5Cl)nn4)c3)c1=O)CC1OCC(C)N1C2=O (stereo not drawn) [Compound 5s],127.14,97.37,122.75,exceed 50%,13.4 ± 4.54,71.73,–
COc1c2n(cc(C(=O)Nc3cccc(-c4cn(-c5c(C)cc(C)cc5C)nn4)c3)c1=O)CC1OCC(C)N1C2=O (stereo not drawn) [Compound 5l],118.92,91.44,125.46,–,–,84.74,98.25
COc1c2n(cc(C(=O)Nc3cccc(-c4cn(Cc5ccc(C(F)(F)F)cc5)nn4)c3)c1=O)CC1OCC(C)N1C2=O (stereo not drawn) [Compound 6d],113.99,93.95,104.58,–,–,113.95,105.14
COc1c2n(cc(C(=O)Nc3cccc(-c4cn(-c5ccc(F)cc5)nn4)c3)c1=O)CC1OCC(C)N1C2=O (stereo not drawn) [Compound 5n],115.05,91.74,127.86,–,–,99.22,105.04
COc1c2n(cc(C(=O)Nc3cccc(-c4cn(-c5ccccc5)nn4)c3)c1=O)CC1OCC(C)N1C2=O (stereo not drawn) [Compound 5p],114.26,87.16,109.72,–,–,88.36,104.18
COc1c2n(cc(C(=O)Nc3cccc(-c4cn(-c5cccc(Cl)c5)nn4)c3)c1=O)CC1OCC(C)N1C2=O (stereo not drawn) [Compound 5q],107.23,88.40,125.35,–,> 100,99.40,104.14
COc1c2n(cc(C(=O)Nc3cccc(-c4cn(Cc5ccccc5Br)nn4)c3)c1=O)CC1OCC(C)N1C2=O (stereo not drawn) [Compound 6b],104.60,101.92,126.52,exceed 50%,30.5 ± 2.18,51.88,–
COc1c2n(cc(C(=O)Nc3cccc(-c4cn(Cc5ccc(Cl)cc5)nn4)c3)c1=O)CC1OCC(C)N1C2=O (stereo not drawn) [Compound 6f],104.20,96.47,130.96,–,–,91.99,94.49
COc1cccc(Cn2cc(-c3cccc(NC(=O)c4cn5c(c(OC)c4=O)C(=O)N4C(C)COC4C5)c3)nn2)c1 (stereo not drawn) [Compound 6g],91.06,94.37,130.54,–,–,93.36,95.01
